For orientation: Tmax means the time from dosing to the highest level.

The data set can be described thus: Pharmacokinetics of transdermal naloxone formulations compared to intravenously administered naloxone. Particulars: female, Gottingen, minipig, in vivo; IV bolus 0.01 mg/kg via marginal ear vein; first time point collected; post dose. More on the design: species or system Gottingen mini-pigs. From the text:
The purpose of this study was to determine the dermal irritation and pharmacokinetics of two transdermal naloxone formulations when worn for three days by naïve female Gottingen mini-pigs and to compare the pharmacokinetic transdermal profiles to the PK of intravenously (IV) administered naloxone.
Test materials (Naloxone Transdermal Formulations 1 & 2) were in the form of a single patch that was applied to the prepared skin site of the animals and remained on for a period of three (3) days.
The positive control article (marketed formulation), Naloxone (Narcan 0.4 mg/mL) was diluted with sterile 0.9% normal saline to a concentration of 0.04 mg/mL in order to achieve a desired dose volume of 0.25 mL/kg and dosage of 0.01 mg/kg. […]
Group 3: Narcan intravenous formulation (0.4 mg/mL) was diluted with sterile 0.9% normal saline to a concentration of 0.04 mg/mL. The dose volumes were calculated using the individual body weights of the pigs on the day of dosing. […]
The time of Test Material patch application and removal were recorded for each animal so that dermal scoring and PK time-points were calculated. The time of intravenous injection was also recorded so that PK time-points were calculated.

Consider `C=CCN1CC[C@]23c4c5ccc(O)c4O[C@H]2C(=O)CC[C@@]3(O)[C@H]1C5` [Naloxone, 17-allyl-4,5α-epoxy-3,14-dihydroxymorphinan-6-one], for which the Tmax is 5 min.

The record behind these values is US20190175519A1, “Naloxone Transdermal Delivery Devices and Methods for Using the Same” (Teikoku Pharma USA, Inc., priority 2017, published 2019).
